From patent EP4491649A1, “DUAL CURABLE OLIGOMERS” (ARKEMA FRANCE, priority 2023, dated 2025)

Columns and labels:
Format in all cases: physicochemical
[1] = Storage stability (thermal test, viscosity before/after 48 hours at 65°C, alone or mixed with ADH)
Protocol: The storage stability tests were performed by placing the oligomer to be tested, alone or mixed with ADH (as a curing agent), at 65°C for 48 hours (thermal test), and measuring their viscosity (cps@60C).

[2] = Refractive index (RX-7000 α, ATAGO)
Protocol: The refractive index of the oligomers was measured using a RX-7000 α from AT AGO at a temperature of 25°C.

[3] = Viscosity of the oligomers (Brookfield RVDV-II+ Pro, #28 spindle); settings: 20 rpm
Protocol: The viscosity of the oligomers was measured using a Brookfield RVDV-II+ Pro instrument at a temperature of 60°C using a #28 spindle and a rotational speed of 20 rpm. Moreover, the viscosity of the oligomers was measured with a Brookfield RVDV-II+ Pro instrument at a temperature of 25°C using a #28 spindle and a rotational speed of 10 rpm.

[4] = Mechanical performance of cured compositions (tensile strength, modulus, elongation at break, ASTM D638)
Protocol: These mechanical properties were measured in accordance with ASTM D638.
The mechanical performance tests were performed on compositions comprising the oligomer to be tested mixed with SR506, photoinitiators and/or curing agents, as detailed in Tables 4, 5 and 6 below.
Tests UV + Thermal cure: 80 wt.% of oligomers were mixed with 20 wt. % of SR506. To this mixture were added 3 wt.% of TPO and 1 wt.% of 2E4MZ (based on the total weight of oligomers + SR506).
Tests UV cure: 80 wt.% of oligomers were mixed with 20 wt. % of SR506. To this mixture was added 3 wt.% of TPO (based on the total weight of oligomers + SR506).
Tests Thermal cure: 80 wt.% of oligomers were mixed with 20 wt.% of SR506. To this mixture was added 1 wt.% of 2E4MZ (based on the total weight of oligomers + SR506).

[5] = Epoxy Equivalent Weight (EEW), ASTM D1763-1981
Protocol: The EEW was measured in accordance with ASTM D1763-1981.

[6] = Thermal Cure, 80 wt.% oligomer + 20 wt.% SR506, then 1 wt.% 2E4MZ
[7] = UV + Thermal Cure, 80 wt.% oligomer + 20 wt.% SR506, then 3 wt.% TPO + 1 wt.% 2E4MZ
[8] = UV Cure, 80 wt.% oligomer + 20 wt.% SR506, then 3 wt.% TPO

viscosity change after storage ([1]; 65°C for 48h, not mixed with ADH): no significant viscosity change
Viscosity (cps@60C) After storage 48h, 65°C ([1]; after storage 48h at 65°C, measured at 60C): 2,450 cps
Viscosity (cps@60C) Initial ([1]; initial, measured at 60C): 2,390 cps
state of composition after storage ([1]; mixed with 20 wt.% ADH, 48h at 65°C): becomes gelled
Refractive Index (25°C) [2]: 1.5633
Viscosity (60°C) [3]: 2390 mPa.s
Viscosity (60°C) ([3]; listed as Comparative oligomer): around 2390 mPa.s
Elongation at break (%) [4, 6]: 2.095%
Tensile modulus [4, 6]: 2,037
Tensile strength (Mpa) [4, 6]: 43.33 Mpa
Elongation at break (%) [4, 7]: 1.86%
Tensile modulus [4, 7]: 4027
Tensile strength (Mpa) [4, 7]: 73.39 Mpa
Elongation at break (%) [4, 8]: 2.32%
Tensile modulus [4, 8]: 2722
Tensile strength (Mpa) [4, 8]: 62.9 Mpa
EEW ([5]; Table 2): 1020 g/ep
EEW ([5]; synthesis text): 1020 g/eq
Structure (SMILES): C=CC(=O)OCC(O)COc1ccc(C(C)(C)c2ccc(OCC3CO3)cc2)cc1 (stereo not drawn) [Reference]
